The values below come from ChEMBL document CHEMBL5154816, “Structure-Based Discovery and Optimization of Furo[3,2-c]pyridin-4(5H)-one Derivatives as Potent and Second Bromodomain (BD2)-Selective Bromo and Extra Terminal Domain (BET) Inhibitors” (J Med Chem, 2022).

The target of assay [1] is T1, Bromodomain-containing protein 4 (Homo sapiens, UniProt O60885). Briefly: Inhibition of C-terminal His6-tagged BRD4 BD1 (unknown origin) using H-YSGRGK(Ac)GGK(Ac)GLGK(Ac)-GGAK(Ac)RHRK-Biotin-OH as substrate incubated for 1 hrs by HTRF assay. For orientation: In TR-FRET formats the signal depends on donor and acceptor labels being close together.
The target of assay [2] is T1, Bromodomain-containing protein 4. Briefly: Inhibition of C-terminal His6-tagged BRD4 BD2 (unknown origin) using H-YSGRGK(Ac)GGK(Ac)GLGK(Ac)-GGAK(Ac)RHRK-Biotin-OH as substrate incubated for 1 hrs by HTRF assay.
The species entered for another assay is Homo sapiens. Briefly: Selectivity index, ratio of IC50 for BRD4 BD1 (unknown origin) to IC50 of BRD4 BD2 (unknown origin).

The IC50 is the concentration that inhibits the measured activity by half. Low values mean inhibition by little substance, high ones a need for much substance. For the molecule `CCS(=O)(=O)Cc1ccc(Oc2ccc(F)cc2F)c(-c2cn(C)c(=O)c3cc(-c4cc(C)c(OCCO)c(C)c4)oc23)c1`, the IC50 in assay [1] turned out to be 0.33 nM; in assay [2], 0.55 nM. For the same molecule, the Ratio IC50 in the assay listed under Homo sapiens came out at 0.6.
In the same order, the values of `CCS(=O)(=O)Nc1ccc(Oc2ccc(F)cc2F)c(-c2cn(C)c(=O)c3cc(-c4cnc(C)[nH]4)oc23)c1` are 0.53 nM, 0.76 nM and 0.7.
In the same order, the values of `Cc1cc(-c2cc3c(=O)n(C)cc(-c4cc(CS(=O)(=O)C(C)C)ccc4Oc4ccc(F)cc4F)c3o2)cc(C)c1OCCO` are 0.57 nM, 0.62 nM and 0.92.
`Cc1cc(-c2cc3c(=O)n(C)cc(-c4cc(CO)ccc4Oc4ccc(F)cc4F)c3o2)cc(C)c1OCCO`: the IC50 in assay [1] was 4.1 nM; in assay [2], 0.98 nM. The Ratio IC50 in the assay filed under Homo sapiens came to 4.18.
Take `CCS(=O)(=O)Nc1ccc(Oc2c(F)cc(F)cc2F)c(-c2cn(C)c(=O)c3cc(-c4cc(C)c(OCCO)c(C)c4)oc23)c1`: the figures for the IC50 in assay [1] and in assay [2] were 0.43 nM and 0.49 nM, respectively. Moreover, in the assay listed under Homo sapiens, the Ratio IC50 was determined as 0.88.
Consider `CCc1cccc(CC)c1Oc1ccc(NS(=O)(=O)CC)cc1-c1cn(C)c(=O)c2cc(-c3cc(C)c(OCCO)c(C)c3)oc12`, for which the figures for the IC50 in assay [1] and in assay [2] were 61 nM and 9.7 nM, respectively. Further, in the assay filed under Homo sapiens, the Ratio IC50 was 6.29.
The matching figures for `CCS(=O)(=O)Nc1ccc(Oc2ccc(F)cc2F)c(-c2cn(C)c(=O)c3cc(-c4ccc(OCCO)cc4)oc23)c1`: 0.56 nM, 0.62 nM and 0.9.
In the same order, the values of `Cc1cc(-c2cc3c(=O)n(C)cc(-c4cc(NC(=O)C5CC5)ccc4Oc4ccc(F)cc4F)c3o2)cc(C)c1OCCO` are 6.8 nM, 3.2 nM and 2.12.
The matching figures for `CCS(=O)(=O)Nc1ccc(Oc2ccc(F)cc2F)c(-c2cn(C)c(=O)c3cc(-c4cc(C)cc(C)c4)oc23)c1`: 6.1 nM, 3.7 nM and 1.65.
As for `Cc1cc(-c2cc3c(=O)n(C)cc(-c4cc(C(C)(C)O)ccc4Oc4c(C)cc(F)cc4C)c3o2)cc(C)c1OCCCO`, the IC50 in assay [1] came out at 63 nM; in assay [2], 1.4 nM. In addition, the Ratio IC50 in the assay filed under Homo sapiens came out at 45.
In the same order, the values of `Cc1cc(-c2cc3c(=O)n(C)cc(-c4cc(NS(=O)(=O)C(C)C)ccc4Oc4ccc(F)cc4F)c3o2)cc(C)c1OCCO` are 1.4 nM, 0.94 nM and 1.49.
The matching figures for `CCS(=O)(=O)Nc1ccc(Oc2ccc(F)cc2F)c(-c2cn(C)c(=O)c3cc(-c4ccc(CCCO)cc4)oc23)c1`: 0.75 nM, 0.41 nM and 1.83.
The matching figures for `CCC(=O)Nc1ccc(Oc2ccc(F)cc2F)c(-c2cn(C)c(=O)c3cc(-c4cc(C)c(OCCO)c(C)c4)oc23)c1`: 2.3 nM, 0.72 nM and 3.19.
On to `Cc1cc(F)cc(C)c1Oc1ccc(C(C)(C)O)cc1-c1cn(C)c(=O)c2cc(-c3cnc(C(C)C)[nH]3)oc12`, for which the values for the IC50 in assay [1] and in assay [2] were 192 nM and 0.68 nM, respectively. Further, the Ratio IC50 in the assay filed under Homo sapiens stood at 282.
The matching figures for `CCCS(=O)(=O)Nc1ccc(Oc2ccc(F)cc2F)c(-c2cn(C)c(=O)c3cc(-c4cc(C)c(OCCO)c(C)c4)oc23)c1`: 0.94 nM, 0.65 nM and 1.54.
For the molecule `CCS(=O)(=O)Nc1ccc(Oc2ccc(F)cc2F)c(-c2cn(C)c(=O)c3cc(-c4cnc(C(C)C)[nH]4)oc23)c1`, the values for the IC50 in assay [1] and in assay [2] were 0.95 nM and 0.54 nM, respectively. For the same molecule, in the assay filed under Homo sapiens, the Ratio IC50 was found to be 1.76.
In the case of `CCc1cccc(C)c1Oc1ccc(NS(=O)(=O)CC)cc1-c1cn(C)c(=O)c2cc(-c3cc(C)c(OCCO)c(C)c3)oc12`, the values for the IC50 in assay [1] and in assay [2] were 10 nM and 1.4 nM, respectively. Besides, in the assay filed under Homo sapiens, the Ratio IC50 stood at 7.14.
The matching figures for `Cc1cc(-c2cc3c(=O)n(C)cc(-c4cc(NC(=O)C(C)C)ccc4Oc4ccc(F)cc4F)c3o2)cc(C)c1OCCO`: 7.8 nM, 1.9 nM and 4.11.
In the same order, the values of `CCS(=O)(=O)Nc1ccc(Oc2ccc(F)cc2F)c(-c2cn(C)c(=O)c3cc(-c4cnc[nH]4)oc23)c1` are 1.2 nM, 0.51 nM and 2.35.
The matching figures for `Cc1cc(-c2cc3c(=O)n(C)cc(-c4cc(NS(C)(=O)=O)ccc4Oc4ccc(F)cc4F)c3o2)cc(C)c1OCCO`: 0.39 nM, 0.76 nM and 0.51.
On to `CCS(=O)(=O)Nc1ccc(Oc2ccc(F)cc2F)c(-c2cn(C)c(=O)c3cc(-c4cnc(C5CCCC5)[nH]4)oc23)c1`, for which the values for the IC50 in assay [1] and in assay [2] were 4.1 nM and 0.91 nM, respectively. Moreover, the Ratio IC50 in the assay filed under Homo sapiens was determined as 4.52.
The matching figures for `CCc1ncc(-c2cc3c(=O)n(C)cc(-c4cc(NS(=O)(=O)CC)ccc4Oc4ccc(F)cc4F)c3o2)[nH]1`: 1.2 nM, 0.5 nM and 2.4.
With `CCS(=O)(=O)Nc1ccc(Oc2ccc(F)cc2F)c(-c2cn(C)c(=O)c3cc(-c4cnc(C5CC5)[nH]4)oc23)c1`, the IC50 amounted to 0.7 nM in assay [1] and 0.34 nM in assay [2]. Moreover, the Ratio IC50 in the assay listed under Homo sapiens was 2.06.
In the same order, the values of `Cc1cc(-c2cc3c(=O)n(C)cc(-c4cc(C(C)(C)O)ccc4Oc4ccc(F)cc4F)c3o2)cc(C)c1OCCO` are 1.57 nM, 0.45 nM and 3.5.
The matching figures for `Cc1cc(F)cc(C)c1Oc1ccc(C(C)(C)O)cc1-c1cn(C)c(=O)c2cc(-c3cnc(C4CCOCC4)[nH]3)oc12`: 60 nM, 0.46 nM and 130.
For `CCS(=O)(=O)Nc1ccc(Oc2ccc(F)cc2F)c(-c2cn(C)c(=O)c3cc(-c4ccccc4)oc23)c1`, the IC50 in assay [1] was 2.4 nM; in assay [2] it was 1.5 nM. For the same molecule, the Ratio IC50 in the assay filed under Homo sapiens came out at 1.6.
In the same order, the values of `CCS(=O)(=O)Nc1ccc(Oc2ccc(F)cc2F)c(-c2cn(C)c(=O)c3cc(-c4cc(C)c(CCCO)c(C)c4)oc23)c1` are 0.72 nM, 0.49 nM and 1.47.
The matching figures for `Cc1cc(-c2cc3c(=O)n(C)cc(-c4cc(NS(=O)(=O)C5CC5)ccc4Oc4ccc(F)cc4F)c3o2)cc(C)c1OCCO`: 1 nM, 1 nM and 1.
In the same order, the values of `CCS(=O)(=O)Nc1ccc(Oc2c(C)cccc2C)c(-c2cn(C)c(=O)c3cc(-c4cc(C)c(OCCO)c(C)c4)oc23)c1` are 6 nM, 1.3 nM and 4.62.
Take `CCS(=O)(=O)Nc1ccc(Oc2ccc(F)cc2F)c(-c2cn(C)c(=O)c3cc(-c4cnc(C5CCC5)[nH]4)oc23)c1`: the IC50 in assay [1] came to 2 nM; in assay [2], 0.94 nM. Moreover, the Ratio IC50 in the assay listed under Homo sapiens amounted to 2.13.
In the same order, the values of `Cc1cc(F)cc(C)c1Oc1ccc(C(C)(C)O)cc1-c1cn(C)c(=O)c2cc(-c3cnc(C4CCOC4)[nH]3)oc12` (centres undefined) are 78 nM, 0.6 nM and 130.
Take `CCS(=O)(=O)Nc1ccc(Oc2ccc(F)cc2F)c(-c2cn(C)c(=O)cc2OCc2ccccc2)c1`: the midpoint of inhibition in assay [2], the IC50, lay at 0.92 nM.
